Measured values as given in publication PMC4263271 (Nature, 2014).

Columns and labels:
[1] = target: ATP5B (ATP synthase subunit beta) (Homo sapiens, UniProt P06576); assay: DARTS with LC-MS/MS; format: binding; conditions: TNC buffer pH 8.0, 10 mM CaCl2; room temperature
PHD-2/Egln1 = PHD-2/Egln1 (Homo sapiens, UniProt Q9GZT9); assay: DARTS with Western blot, HeLa lysate; format: binding; conditions: TNC buffer pH 8.0, 10 mM CaCl2; room temperature
Sequence of PHD-2/Egln1 (Q9GZT9 2-426): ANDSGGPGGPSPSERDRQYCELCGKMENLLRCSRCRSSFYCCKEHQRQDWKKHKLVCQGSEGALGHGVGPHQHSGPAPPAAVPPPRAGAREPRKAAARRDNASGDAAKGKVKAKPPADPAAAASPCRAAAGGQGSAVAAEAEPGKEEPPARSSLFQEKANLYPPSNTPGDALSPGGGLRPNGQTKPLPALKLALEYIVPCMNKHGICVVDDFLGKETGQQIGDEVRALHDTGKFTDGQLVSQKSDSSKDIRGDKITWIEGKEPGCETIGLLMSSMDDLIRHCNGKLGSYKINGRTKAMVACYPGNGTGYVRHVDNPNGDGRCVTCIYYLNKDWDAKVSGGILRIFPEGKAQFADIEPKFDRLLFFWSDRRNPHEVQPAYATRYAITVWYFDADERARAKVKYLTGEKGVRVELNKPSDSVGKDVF

Sequence of ATP5B (ATP synthase subunit beta) (P06576 48-529): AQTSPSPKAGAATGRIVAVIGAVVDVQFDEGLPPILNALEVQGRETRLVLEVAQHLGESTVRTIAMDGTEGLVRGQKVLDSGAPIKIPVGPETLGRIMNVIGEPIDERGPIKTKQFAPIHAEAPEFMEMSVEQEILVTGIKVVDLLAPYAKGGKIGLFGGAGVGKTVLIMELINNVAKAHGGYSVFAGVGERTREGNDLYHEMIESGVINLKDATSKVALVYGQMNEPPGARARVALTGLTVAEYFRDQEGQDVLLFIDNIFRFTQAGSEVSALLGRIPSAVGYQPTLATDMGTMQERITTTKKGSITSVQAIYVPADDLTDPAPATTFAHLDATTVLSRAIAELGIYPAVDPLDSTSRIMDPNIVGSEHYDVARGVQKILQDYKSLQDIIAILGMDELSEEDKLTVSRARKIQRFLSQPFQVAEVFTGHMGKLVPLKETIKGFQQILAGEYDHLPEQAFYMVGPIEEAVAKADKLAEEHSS

DARTS with Western blot, HeLa lysate (PHD-2/Egln1): Binding between α-KG and PHD-2/Egln1
SMILES: O=C(O)CCC(=O)C(=O)O [α-KG]
DARTS with LC-MS/MS (Jurkat) and Western blot (HeLa) [1]: DARTS confirms α-KG binding specifically to ATP5B
